PMC6193938, “Characterization of a novel AICARFT inhibitor which potently elevates ZMP and has anti-tumor activity in murine models” (Scientific Reports, 2018)
Read-outs that look alike come from different tables or passages of the source.

Experiments:
A101D (melenoma) = test: MS detection of ZMP in cultured cells; format: cell-based; conditions: Homo sapiens, low folate RPMI media, 16 hours
Method: (§1) Cells lines were acquired from cell banks, see supplemental material, grown using the cell banks recommended culture conditions (Supplemental Table 3). In some experiments noted “low folate” the cells were washed and grown in folate free RPMI-1640 media (Gibco #27016-021) supplemented with 5 ml 1 M Hepes, 5 ml 100 mM Na pyruvate, 2.5 mg/ml glucose and 10% defined FBS (Hyclone #SH30070) per 500 mL media for 5–7 days to deplete intracellular folate levels prior to the start of the experiment. Where noted, cells were maintained in complete “high folate” RPMI-1640 media (ATCC #30-2001) with 10% defined FBS to contrast with the low folate conditions.
(§2) ZMP was detected in cultured cells via mass spec analysis. Cells were plated in 96-well plates at 25,000 cells per well in 100 µL with either high or low folate RPMI media and incubated overnight at 37 °C with 5% CO2. Cells were treated with inhibitor compounds for 16 hours, 0.5% DMSO final concentration. Growth media was decanted and cells were lysed for 10 min at room temperature with 50 µL per well of 1x Sure Fire Lysis buffer (Perkin Elmer, SureFire kit component). Aliquots (40 µL) of standard or sample were combined in a deep 96-well plate with 160 µL of internal standard solution containing ^13C5-ZMP (custom synthesis) and ^13C5-AICAr (custom synthesis) at 100 ng/mL in 40 mM ammonium acetate, pH 4. 400 µL of dichloromethane was added to each sample. Samples were sealed, vortexed for 5 minutes, and placed in the refrigerator for at least 30 minutes. The samples were centrifuged at 4 °C for 10 minutes at 16,600 g. 75 µL of the aqueous layer were transferred to a clean 96-well plate and seal prior to analysis.
(§3) The LC-MS method utilizes a Shimadzu Prominence 20 A HPLC system connected to an AB Sciex 5500™ or an AB Sciex 6500™ triple quadrupole mass spectrometer. Extracted samples were separated using a Thermo Hypercarb™ Javelin guard column (2.1 × 20 mm, 5 µm) with an injection volume of 15 µL and a flow rate of 1 mL/minute.
(§4) ZMP, AICAr and dUMP were detected using positive ion TurboIonSpray® multiple reaction monitoring mode and the data were processed with AB Sciex MultiQuant™. Back-calculated ZMP concentrations were fit to a four-parameter logistic equation using ACTIVITYBASE 4.0 to determine EC50 values relative to the maximum observed metabolite levels.

A549 (lung) = test: MS detection of ZMP in cultured cells; format: cell-based; conditions: Homo sapiens, 16 hours
Method: as §1, §2, §3, §4

HCT 116 (colon) = test: MS detection of ZMP in cultured cells; format: cell-based; conditions: Homo sapiens, 16 hours
Method: as §1, §2, §3, §4

MIA PaCa-2 (pancreas) = test: MS detection of ZMP in cultured cells; format: cell-based; conditions: Homo sapiens, 16 hours
Method: as §1, §2, §3, §4

NCI-H1155 (lung) = test: MS detection of ZMP in cultured cells; format: cell-based; conditions: Homo sapiens, 16 hours
Method: as §1, §2, §3, §4

NCI-H1299 = test: MS detection of ZMP in cultured cells; format: cell-based; conditions: Homo sapiens, low folate RPMI media, 16 hours
Method: as §1, §2, §3, §4

NCI-H1437 (lung) = test: MS detection of ZMP in cultured cells; format: cell-based; conditions: Homo sapiens, 16 hours
Method: as §1, §2, §3, §4

NCI-H1993 (lung) = test: MS detection of ZMP in cultured cells; format: cell-based; conditions: Homo sapiens, low folate RPMI media, 16 hours
Method: as §1, §2, §3, §4

SNU-16 (gastric) = test: MS detection of ZMP in cultured cells; format: cell-based; conditions: Homo sapiens, 16 hours
Method: as §1, §2, §3, §4

SW620 (colon) = test: MS detection of ZMP in cultured cells; format: cell-based; conditions: Homo sapiens, 16 hours
Method: as §1, §2, §3, §4

CDK1 = target: T1, CDK1 (Homo sapiens, UniProt P06493); test: CEREP protein kinase assay; format: biochemical
T1 construct: purchased CEREP Panlabs (Eurofins)
T1 sequence (P06493 whole entry): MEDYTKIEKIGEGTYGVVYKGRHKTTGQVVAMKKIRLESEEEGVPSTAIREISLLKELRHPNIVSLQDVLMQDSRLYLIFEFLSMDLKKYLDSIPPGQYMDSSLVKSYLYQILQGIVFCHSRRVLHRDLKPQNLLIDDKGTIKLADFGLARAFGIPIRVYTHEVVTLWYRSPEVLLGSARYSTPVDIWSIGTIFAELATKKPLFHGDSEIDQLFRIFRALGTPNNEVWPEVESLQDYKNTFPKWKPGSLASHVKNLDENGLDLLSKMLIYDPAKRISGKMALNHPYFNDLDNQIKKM
T1 sequence (P14635 whole entry partner): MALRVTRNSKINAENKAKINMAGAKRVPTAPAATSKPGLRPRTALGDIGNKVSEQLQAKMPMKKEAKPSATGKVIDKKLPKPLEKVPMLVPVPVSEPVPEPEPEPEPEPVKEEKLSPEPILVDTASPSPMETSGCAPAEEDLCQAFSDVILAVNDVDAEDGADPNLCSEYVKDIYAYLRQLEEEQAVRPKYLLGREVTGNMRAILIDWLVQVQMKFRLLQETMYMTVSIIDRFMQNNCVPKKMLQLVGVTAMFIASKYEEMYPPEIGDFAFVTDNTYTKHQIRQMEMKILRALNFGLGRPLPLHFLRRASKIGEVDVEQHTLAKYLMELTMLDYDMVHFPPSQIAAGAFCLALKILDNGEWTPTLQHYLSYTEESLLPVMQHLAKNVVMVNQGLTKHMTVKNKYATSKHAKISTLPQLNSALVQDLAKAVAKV

MUSK = target: T2, MUSK (Homo sapiens, UniProt O15146); test: CEREP protein kinase assay; format: biochemical
T2 construct: purchased CEREP Panlabs (Eurofins)
T2 sequence (O15146 24-869): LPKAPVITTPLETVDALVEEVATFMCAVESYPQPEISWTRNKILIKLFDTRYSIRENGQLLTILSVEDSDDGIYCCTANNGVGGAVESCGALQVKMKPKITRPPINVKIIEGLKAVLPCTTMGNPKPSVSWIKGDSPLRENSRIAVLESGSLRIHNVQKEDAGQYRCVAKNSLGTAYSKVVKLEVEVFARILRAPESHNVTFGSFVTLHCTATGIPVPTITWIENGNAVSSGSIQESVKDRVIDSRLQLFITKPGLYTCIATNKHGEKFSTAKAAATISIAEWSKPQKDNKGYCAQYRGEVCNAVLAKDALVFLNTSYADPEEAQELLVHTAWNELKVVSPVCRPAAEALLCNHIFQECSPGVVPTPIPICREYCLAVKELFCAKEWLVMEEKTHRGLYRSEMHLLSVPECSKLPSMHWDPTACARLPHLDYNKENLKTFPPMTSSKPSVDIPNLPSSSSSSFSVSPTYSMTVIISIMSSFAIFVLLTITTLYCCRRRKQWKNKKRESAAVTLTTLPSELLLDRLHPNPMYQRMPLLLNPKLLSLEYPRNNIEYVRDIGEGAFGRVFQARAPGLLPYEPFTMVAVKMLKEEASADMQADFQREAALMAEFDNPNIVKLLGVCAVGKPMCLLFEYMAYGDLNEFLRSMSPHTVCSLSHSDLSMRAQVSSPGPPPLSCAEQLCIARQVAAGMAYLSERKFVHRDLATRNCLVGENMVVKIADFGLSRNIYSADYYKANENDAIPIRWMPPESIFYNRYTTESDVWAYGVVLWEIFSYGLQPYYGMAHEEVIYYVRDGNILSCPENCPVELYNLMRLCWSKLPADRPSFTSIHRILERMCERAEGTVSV

TRKA = target: T3, TRKA (Homo sapiens, UniProt P04629); test: CEREP protein kinase assay; format: biochemical
T3 construct: purchased CEREP Panlabs (Eurofins)
T3 sequence (P04629 33-796): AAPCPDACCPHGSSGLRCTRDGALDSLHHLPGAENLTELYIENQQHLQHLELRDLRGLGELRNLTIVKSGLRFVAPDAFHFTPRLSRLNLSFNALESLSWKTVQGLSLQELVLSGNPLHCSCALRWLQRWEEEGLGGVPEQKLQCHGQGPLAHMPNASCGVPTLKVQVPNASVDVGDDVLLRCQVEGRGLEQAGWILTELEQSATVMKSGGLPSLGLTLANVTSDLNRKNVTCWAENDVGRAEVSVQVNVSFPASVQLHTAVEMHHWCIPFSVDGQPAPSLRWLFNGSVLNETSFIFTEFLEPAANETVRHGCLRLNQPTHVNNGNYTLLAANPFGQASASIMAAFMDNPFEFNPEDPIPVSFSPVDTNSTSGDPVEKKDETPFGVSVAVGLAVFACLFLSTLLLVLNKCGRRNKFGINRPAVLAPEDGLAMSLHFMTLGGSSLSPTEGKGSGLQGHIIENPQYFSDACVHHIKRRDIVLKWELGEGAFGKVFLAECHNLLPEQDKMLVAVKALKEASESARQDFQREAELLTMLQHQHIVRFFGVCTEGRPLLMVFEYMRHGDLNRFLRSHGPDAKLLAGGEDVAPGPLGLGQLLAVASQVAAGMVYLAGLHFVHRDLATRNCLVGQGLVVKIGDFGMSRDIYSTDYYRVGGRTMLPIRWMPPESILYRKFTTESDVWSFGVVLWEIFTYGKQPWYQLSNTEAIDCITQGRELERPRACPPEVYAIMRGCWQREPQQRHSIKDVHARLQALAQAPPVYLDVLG

[1] = RPMI media, read-out: ZMP EC50 Regular folate
[2] = low folate RPMI media, read-out: ZMP EC50 Low folate

With `O=c1[nH]ccc2cc(F)c(NS(=O)(=O)c3ccc(N4CC[C@@H](O)C4)s3)cc12` [LSN3213128, N-(6-Fluoro-1-oxo-1,2-dihydroisoquinolin-7-yl)-5-[(3R)-3-hydroxypyrrolidin-1-yl]thiophene-2-sulfonamide] the EC50 (A101D (melenoma)) was 2.3 nM, the EC50 (A549 (lung); [1]) was 3100 nM and the EC50 (A549 (lung); [2]) was 10 nM. It also gave an EC50 (HCT 116 (colon); [1]) of 369 ± 44 nM, an EC50 (HCT 116 (colon); [2]) of 2.7 ± 3.3 nM and an EC50 (MIA PaCa-2 (pancreas); [1]) of 1700 nM. It also gave an EC50 (MIA PaCa-2 (pancreas); [2]) of 4.2 nM, an EC50 (NCI-H1155 (lung); [1]) of 380 nM and an EC50 (NCI-H1155 (lung); [2]) of 2.3 nM. For the same molecule, the EC50 (NCI-H1299) was 4.1 nM, the EC50 (NCI-H1437 (lung); [1]) was 620 ± 354 nM and the EC50 (NCI-H1437 (lung); [2]) was 4.6 nM. The EC50 (NCI-H1993 (lung)) was 7.1 nM, the EC50 (SNU-16 (gastric); [1]) was 2500 nM and the EC50 (SNU-16 (gastric); [2]) was 2 nM. The EC50 (SW620 (colon); SW-620, RPMI media, read-out: ZMP EC50 Regular folate) was 600 nM, the EC50 (SW620 (colon); SW-620, low folate RPMI media, read-out: ZMP EC50 Low folate) was 4.3 ± 0.9 nM and the inhibition at 0.2 µM (CDK1; @ 0.2 uM) was -4.14%. It also gave an inhibition at 2 µM (CDK1; @ 2 uM) of 4.5%, an inhibition at 20 µM (CDK1; @ 20 uM) of 5.99% and an inhibition at 0.2 µM (MUSK; @ 0.2 uM) of -4.24%. The inhibition at 2 µM (MUSK; @ 2 uM) was 5.22%, the inhibition at 20 µM (MUSK; @ 20 uM) was -2.74% and the inhibition at 0.2 µM (TRKA; @ 0.2 uM) was -1.15%. For the same molecule, the inhibition at 2 µM (TRKA; @ 2 uM) was 8.27% and the inhibition at 20 µM (TRKA; @ 20 uM) was 10.1%.
